Reference: patent publication US20060148838A1, “Novel pyrrolodihydroisoquinolines useful in the treatment of cancer” (Altana Pharma AG, priority 2003, published 2006)

What was measured:
[1] = system: NCl-H460 non-small cell lung cancer cells; assay: Alamar Blue cell viability assay, anti-proliferative/cytotoxic activity; format: cell-based; settings: 72 hours incubation, one range stated for all listed Examples, read-out: −log IC50 NCl-H460 (converted)
Procedure: The anti-proliferative/cytotoxic activity of the compounds described herein, can be tested on NCl-H460 non-small cell lung cancer cells using the Alamar Blue cell viability assay (described in O'Brien et al. Eur J Biochem 267, 5421-5426, 2000). The compounds are dissolved as 20 mM solutions in dimethylsulfoxide (DMSO) and subsequently diluted in semi-logarithmic steps. DMSO dilutions are further diluted 1:100 into Dulbecco's modified Eagle's medium (DMEM) containing 10% fetal calf serum to a final concentration twice as much as the final concentration in the test. NCl-460 cells are seeded into 96 well flat bottom plates at a density of 4000 cells per well in a volume of 50 μl per well. 24 hours after seeding the 50 μl each of the compound dilutions in DMEM medium are added into each well of the 96 Well plate. Each compound dilution is tested as quadruplicates. Wells containing untreated control cells are filled with 50 μl DMEM medium containing 1% DMSO. The cells are then incubated with the substances for 72 hours at 37° C. In a humified atmosphere containing 5% carbon dioxide. To determine the viability of the cells, 10 μl of an Alamar Blue solution (Biosource) are added and the fluorescence is measured at an extinction of 544 nm and an emission of 590 nm. For the calculation of cell viability the emission value from untreated cells is set to 100% viability and the emission rates of treated cells are set in relation to the values of untreated cells. Viabilities are expressed as % values.
The corresponding IC50 values of the compounds for anti-proliferative/cytotoxic activity are determined from the concentration-effect curves.
Representative advantageous IC50 values for anti-proliferation/cytotoxicity determined for the compounds mentioned and numbered as Examples in the examples above follow from the following table A, in which the numbers of the compound correspond to the numbers of the examples.

Structure (SMILES) | IC50 [1] [nM] | melting point [°C]
CCOC(=O)c1c(-c2cc(C)c(O)c(C)c2)c(C)n2c1-c1cc(OC)c(OCCOC)cc1CC2 [Example 18, 2-(4-Hydroxy-3,5-dimethyl-phenyl)-9-methoxy-8-(2-methoxy-ethoxy)-3-methyl-5,6-dihydro-pyrrolo[2,1-a]isoquinoline-1-carboxylic acid ethyl ester] | 398 to 3160 | 169 to 171
CCC(C)NC(=O)c1c(-c2cc(C)c(O)c(C)c2)c(C)n2c1-c1cc(OC)c(OC)cc1CC2 (centres unmarked) [Example 36, 2-(4-Hydroxy-3,5-dimethyl-phenyl)-8,9-dimethoxy-3-methyl-5,6-dihydro-pyrrolo[2,1-a]isoquinoline-1-carboxylic acid sec-butylamide] | 398 to 3160 | 238 to 240
CCOC(=O)c1c(-c2cccc(N(C)C)c2)c(C)n2c1-c1cc(OC(F)F)c(OC)cc1CC2 [Example 4, 9-(1,1-Difluoro-methoxy)-2-(3-dimethylamino-phenyl)-8-methoxy-3-methyl-5,6-dihydro-pyrrolo[2,1-a]isoquinoline-1-carboxylic acid ethyl ester] | 398 to 3160 | 107 to 110
CCOC(=O)c1c(-c2cc(C)c(O)c(C)c2)c(C)n2c1-c1cc(OC(F)F)c(OC)cc1CC2 [Example 5, 9-(1,1-Difluoro-methoxy)-2-(4-hydroxy-3,5-dimethyl-phenyl)-8-methoxy-3-methyl-5,6-dihydro-pyrrolo[2,1-a]isoquinoline-1-carboxylic acid ethyl ester] | 398 to 3160 | 152 to 155
